From patent US10039741B2, “Use of delta tocopherol for the treatment of lysosomal storage disorders” (The United States of America, as represented by the …, priority 2010, dated 2018)
“Also recorded” adds a separate entry of the source.

How the values were obtained:
NPC fibroblasts = assay: Lipid measurement by mass spectrometry (GC/MS); format: cell-based, human; conditions: 80 μM α-tocopherol or 40 uM δ-tocopherol for 5 days
Protocol: (§1) Effects of δ-tocopherol and α-tocopherols on (FIG. 4A) free cholesterol, (FIG. 4B) cholesterol ester and (FIG. 4C) sphingomyelin in NPC cells. NPC or WT cells were treated with DMSO, 80 μM α-tocopherol or 40 uM δ-tocopherol for 5 days. Cell pellets were collected and extracted for lipids. FC EC and sphingomyelin levels were measured by GC/MS. (FIG. 4D) Effects of δ-tocopherols and α-tocopherols on cholesterol efflux.
(§2) Cell pellets were collected from 100-mm dishes and washed once with 10 ml PBS. Proteins were assayed using the BCA kit (Sigma-Aldrich) and lipids were extracted by modified Bligh and Dyer procedure (29) from the cells. Internal standards were added based on protein concentration that included N12:0 sphingomyelin, D7-cholesterol, 17:0 cholesterol ester (Avanti Polar Lipids, Inc). A portion of the lipid extract was used for detection of sphingomyelins using direct infusion mass spectrometric assay with lithium hydroxide for facilitating ionization and the rest was used to convert cholesterol and its ester into acetate by derivatization. The derivatization was performed by treating the dried crude lipid extract with solutions of 1 M acetic acid with 1 M DMAP in chloroform and 1 M EDC in chloroform at 50° C. for 2 hours. The derivatized product was extracted with hexane and analyzed by direct infusion mass spectrometric assay with 5% ammonium hydroxide for facilitating ionization.
(§3) A triple-quadrupole mass spectrometer equipped with an electrospray was used for analysis of lipids in positive mode. Sphingomyelins, cholesterol and cholesterol esters were detected by neutral loss scan of 213 (collision energy: 50 V), neutral loss scan of 77 (collision energy: 14 V) and precursor ion scan of m/z 369 (collision energy: 14 V) respectively. Data processing of mass spectrometric analyses including ion peak selection, data transferring, peak intensity comparison and quantitation was conducted using self-programmed Microsoft Excel macros (30).

wild type cells = assay: Lipid measurement by mass spectrometry (GC/MS); format: cell-based, human
Protocol: as §1, §2, §3

WT fibroblasts = assay: Microarray gene expression; format: cell-based, human; design: ACACA expression, Toco treat WT / HMGCR expression, Toco treat WT / SREBF2 expression, Toco treat WT / LDLR expression, Toco treat WT: unit not given here; conditions: 40 μM delta-tocopherol 5 days vs DMSO-treated
Protocol: Five NPC fibroblast cell lines as well as five normal fibroblast cell lines were treated with 40 μM delta-tocopherol for 5 days with a medium change and sully of fresh compound on 3rd day. The total RNAs was prepared as the standard method described previously ( ). The microarray gene expression experiment was carried out in a core microarray facility at NHGRI with a set of AAAAA chips (Affymetrix). Partek Genomics Software Suite (Copyright, Partek Inc.) was used to perform analysis of microarray data. Affymetrix cell files were loaded into the software using the RMA algorithm, which involved background correction, quantile normalization, log-2 transformation, and median polish summarization. PCA and hierarchical clustering identified one sample as an outlier. This sample (sample number 12) was not considered for further analysis. ANOVA was performed to identify the differentially expressed genes for three comparisons: 1) NPC_DMSO vs WT_DMSO 2) NPC tocopherol-treated vs NPC_DMSO-treated and 3) WT_tocopherol-treated vs WT_DMSO-treated.

NPC cells = format: cell-based, human
Protocol: We disclose that the compound's cytotoxicity could interfere with these cell-based assays that often appeared as the false positives for cholesterol reduction and lysosome size decrease. […] Although the tocotrienol effect on these NPCD cells were observed, they were more toxic in our assays and the additional compound purification (to 99%).
To measure the cytotoxicity of compounds, an ATP content assay was used with a commercial assay kit (ATP-Lite, PerkinElmer). Cells were seeded in white solid 1536-well plates and treated with compounds same as in the cholesterol oxidase assay describe above. After 3-day compound treatment, 3 μl/well detection mixture (prepared according to the manufacturer's instructions) was added to each well and the plates were incubated for 10 min at room temperature followed by a measurement using a Viewlux plate reader in a luminescence mode. The buffer in the detection mixture lyses cells and releases cellular ATP which reacts with luciferin in the presence of luciferase to produce light. The luminescence signal reduces if the cells are killed by the compound during the 3-day treatment.

[1] = system: Niemann Pick type A disease fibroblasts; assay: Lysotracker staining assay; format: cell-based, human
[2] = system: baby hamster kidney cells; assay: Cholesterol efflux; format: cell-based
[3] = system: NPC patient-derived skin fibroblasts; assay: Amplex red cholesterol assay (free cholesterol); format: cell-based, human
Text: Free cholesterol accumulation in cells is a hallmark of NPC disease. The Amplex red cholesterol assay was used to screen an approved drug library in the NPC patient-derived skin fibroblasts that have free cholesterol accumulation in late endosome and lysosome. […] We then show δ-tocopherol in the filipin cholesterol staining assay, a method used clinically for NPCD diagnosis. […] Lysosome size is usually enlarged in the NPCD cells using a lysotracker staining assay.
The free cholesterol level in these cells was then measured by a cholesterol oxidase coupled HRP/amplex red detection method with a commercial available kit (Invitrogen). The cells were seeded to black, tissue culture-treated 1536-well plates (Greiner Bio-One, Monroe, N.C.) at 800 cells/well in 5 μl medium by a Multidrop Combi dispenser (Thermo Scientific, Waltham, Mass.) and cultured for 24 hours. The assay plates were added with 23 nl/well of compound DMSO solution using a pintool station (Kalypsys, San Diego, Calif.) and cultured for 3 days. The 1536-well assay plate was washed by a plate-inverted centrifugation method that removing medium by centrifuging plates upside down against a stack of paper towel at 1000 rpm for 1 min followed by addition of 7 μl/well PBS buffer, repeating for two times. The PBS buffer was added with a 45 degree angled dispenser (Kalypsys) or a Multi-Drop Combi dispenser set at medium speed to reduce disturbance to the cells. After the cell wash, 2.5 μl/well of detection mixture from the kit was added followed by 1 hour incubation at 37° C. With the addition of the detection mixture, the cells were lysed by the detergent containing buffer and free cholesterols in cell lysate were oxidized by cholesterol oxidase to produce H2O2 which reacting with amplex red dye in the presence of horseradish peroxidase to yield red fluorescence signal. A ViewLux plate reader (PerkinElmer, Boston, Mass.) was used to measure the fluorescent signal in assay plates with the excitation of 573 nm and emissions of 610 nm.

[4] = wild type cells, 80 μM α-tocopherol or 40 uM δ-tocopherol for 5 days
[5] = 9 additional fibroblast primary cells from different NPCD patients

Question: What does the source list for `Cc1cc(O)cc2c1O[C@](C)(CCC[C@H](C)CCC[C@H](C)CCCC(C)C)CC2` [δ-tocopherol]?
Answer: amount of cholesterol ester (NPC fibroblasts; NPCD cells): significantly reduced; sphingomyelin amount (NPC fibroblasts; NPCD cells): not significantly changed; free cholesterol level (NPC fibroblasts; NPCD fibroblasts): nearly recovered to the normal level as in the wild type cells; free cholesterol level (wild type cells; normal (WT) cells, 5 days): reduced slightly; amount of cholesterol ester (wild type cells; [4]): significantly reduced; sphingomyelin amount (wild type cells; [4]): not significantly changed; ABCA1 expression, Toco treat WT (WT fibroblasts): −1.4; ACACA expression, Toco treat WT (WT fibroblasts): −1.5; DHCR7 expression, Toco treat WT (WT fibroblasts): −1.6; FADS2 expression, Toco treat WT (WT fibroblasts): −2.0; FRRS1 expression, Toco treat WT (WT fibroblasts): −1.1; HMGCR expression, Toco treat WT (WT fibroblasts): −1.5; HMGCS1 expression, Toco treat WT (WT fibroblasts): −1.6; INSIG1 expression, Toco treat WT (WT fibroblasts): −1.6; LDLR expression, Toco treat WT (WT fibroblasts): −2.0; MMP1 expression, Toco treat WT (WT fibroblasts): 5.0; MMP3 expression, Toco treat WT (WT fibroblasts): 2.0; NOX4 expression, Toco treat WT (WT fibroblasts): −1.7; SC4MOL expression, Toco treat WT (WT fibroblasts): −1.7; SCD expression, Toco treat WT (WT fibroblasts): −3.5; SREBF1 expression, Toco treat WT (WT fibroblasts): −1.2; SREBF2 expression, Toco treat WT (WT fibroblasts): −1.6; cytotoxicity (NPC cells): not present; size of enlarged lysosomes [1]: significantly reduced; cholesterol efflux [2]: significantly increased; effect compared with α-tocopherol [3, 5]: more potent than that of α-tocopherol; effect on cholesterol reduction [3, 5]: confirmed; cholesterol amount (cholesterol reduction) ([3]; NPCD fibroblasts): significantly reduced; potency compared with the other vitamin E isoforms ([3]; free cholesterol amount, filipin staining, lysotracker staining, NPCD fibroblasts): most potent of the eight isoforms of vitamin E; also recorded: more significant and potent than any of the other vitamin E isoforms; effect compared with α-tocopherol ([3]; δ-tocopherol at 40 μM, NPC fibroblasts): more potent than α-tocopherol at 80 μM
